Consider two molecules from patent US5686109A, “Antipyretic analgesic composition” (priority 1993, dated 1997).

In the assay the test system is SD strain rats (pain threshold of right hind leg). Description: Pain Removing Effect (Randall-Selitto method, heat edema). The following applies: 2 h after administration, mean ± standard error, n=10 rats. It counts as in vivo, rat. The protocol:
Test substances and doses:
IPA and IBP were respectively suspended in a 0.5% aqueous solution of methylcellulose (MC) to a concentration of 8 mg/ml. The test suspensions for groups 2 and 3 were prepared by mixing the IPA suspension and IBP suspension together in a proportion of 3:1 (group 2) or 1:3 (group 3). The doses used are shown below. Each suspension was orally administered at a volumetric dose of 5 ml/kg.
Group 1: IPA 40 mg/kg+IBP 0 mg/kg
Group 2: IPA 30 mg/kg+IBP 10 mg/kg
Group 3: IPA 10 mg/kg+IBP 30 mg/kg
Group 4: IPA 0 mg/kg +IBP 40 mg/kg
Six-week-old male SD strain rats (Nippon SLC) fasted 24 hours before experiment were used in groups of 10. They were grouped such that the four groups were uniform in mean body weight.
First, the pain threshold value before thermal stimulation was measured (0 hour value). Then, heat edema was caused on the right hind leg of the rat by immersing said leg in hot water (54° C.) just to the fibular ankle (boundary showing sudden change in hair density) for 12 seconds. Two hours later, the pain threshold of the right hind leg was measured (2 hours value), immediately followed by test substance administration. After the lapse of two further hours, the pain threshold of the right hind leg was measured (4 hours value).
The percent pain removal was calculated by the following formula: [formula]

Consider `CC(C)Cc1ccc(C(C)C(=O)O)cc1` (centres unmarked) [IBP, 2-(4-isobutylphenyl)propionic acid], for which the “Pain removal (%)” value (IPA 0 mg/kg + IBP 40 mg/kg PO) is 32.3 ± 7.5%.

As to `Cc1c(C(C)C)c(=O)n(-c2ccccc2)n1C` [IPA, 4-isopropyl-2,3-dimethyl-1-phenyl-3-pyrazolin-5-one], the “Pain removal (%)” value (IPA 40 mg/kg PO + IBP 0 mg/kg) turned out to be 25.8 ± 15.9%.
